Assay results taken from paper PMC11420776 (RSC Advances, 2024).

Experiments:
[1] = system: CCRF-CEM (leukemia); test: NCI 60-cell one-dose antiproliferative screen; assay type: cell-based, human; details: one dose 10 μM
[2] = system: UACC-257 (melanoma); test: NCI 60-cell one-dose antiproliferative screen; assay type: cell-based, human; details: one dose 10 μM
[3] = system: SN12C (renal cancer); test: NCI 60-cell one-dose antiproliferative screen; assay type: cell-based, human; details: one dose 10 μM
[4] = system: 60 human tumor cell lines; test: NCI 60-cell one-dose antiproliferative screen, whole panel; assay type: cell-based; details: Homo sapiens, 60 cell, read-out: Mean inhibition (mean GI%)
[5] = system: HCT-15 (colon cancer); test: NCI 60-cell one-dose antiproliferative screen; assay type: cell-based, human; details: one dose 10 μM
[6] = system: TK-10 (renal cancer); test: NCI 60-cell one-dose antiproliferative screen; assay type: cell-based, human; details: one dose 10 μM
[7] = system: T-47D (breast cancer); test: NCI 60-cell one-dose antiproliferative screen; assay type: cell-based, human; details: one dose 10 μM
[8] = system: SNB-75 (CNS cancer); test: NCI 60-cell one-dose antiproliferative screen; assay type: cell-based, human; details: one dose 10 μM
[9] = system: UO-31 (renal cancer); test: NCI 60-cell one-dose antiproliferative screen; assay type: cell-based, human; details: one dose 10 μM
[10] = system: IGROV1 (ovarian cancer); test: NCI 60-cell one-dose antiproliferative screen; assay type: cell-based, human; details: one dose 10 μM
[11] = system: RXF 393 (renal cancer); test: NCI 60-cell one-dose antiproliferative screen; assay type: cell-based, human; details: one dose 10 μM
[12] = system: SF-268 (CNS cancer); test: NCI 60-cell one-dose antiproliferative screen; assay type: cell-based, human; details: one dose 10 μM
[13] = system: SK-OV-3 (ovarian cancer); test: NCI 60-cell one-dose antiproliferative screen; assay type: cell-based, human; details: one dose 10 μM
[14] = system: RPMI-8226 (leukemia); test: NCI 60-cell one-dose antiproliferative screen; assay type: cell-based, human; details: one dose 10 μM
[15] = system: CAKI-1 (renal cancer); test: NCI 60-cell one-dose antiproliferative screen; assay type: cell-based, human; details: one dose 10 μM
[16] = system: U251 (CNS cancer); test: NCI 60-cell one-dose antiproliferative screen; assay type: cell-based, human; details: one dose 10 μM
[17] = system: NCI-H522 (NSC lung cancer); test: NCI 60-cell one-dose antiproliferative screen; assay type: cell-based, human; details: one dose 10 μM
[18] = system: DU-145 (prostate cancer); test: NCI 60-cell one-dose antiproliferative screen; assay type: cell-based, human; details: one dose 10 μM
[19] = system: HCC-2998 (colon cancer); test: NCI 60-cell one-dose antiproliferative screen; assay type: cell-based, human; details: one dose 10 μM
[20] = system: OVCAR-8 (ovarian cancer); test: NCI 60-cell one-dose antiproliferative screen; assay type: cell-based, human; details: one dose 10 μM
[21] = system: SK-MEL-28 (melanoma); test: NCI 60-cell one-dose antiproliferative screen; assay type: cell-based, human; details: one dose 10 μM
[22] = system: PC-3 (prostate cancer); test: NCI 60-cell one-dose antiproliferative screen; assay type: cell-based, human; details: one dose 10 μM
[23] = system: HCT-116 (colon cancer); test: NCI 60-cell one-dose antiproliferative screen; assay type: cell-based, human; details: one dose 10 μM
[24] = system: SK-MEL-2 (melanoma); test: NCI 60-cell one-dose antiproliferative screen; assay type: cell-based, human; details: one dose 10 μM
[25] = system: LOX IMIV (melanoma); test: NCI 60-cell one-dose antiproliferative screen; assay type: cell-based, human; details: one dose 10 μM
[26] = system: SW-620 (colon cancer); test: NCI 60-cell one-dose antiproliferative screen; assay type: cell-based, human; details: one dose 10 μM
[27] = system: MCF7 (breast cancer); test: NCI 60-cell one-dose antiproliferative screen; assay type: cell-based, human; details: one dose 10 μM
[28] = system: NCI-H226 (NSC lung cancer); test: NCI 60-cell one-dose antiproliferative screen; assay type: cell-based, human; details: one dose 10 μM
[29] = system: HOP-92 (NSC lung cancer); test: NCI 60-cell one-dose antiproliferative screen; assay type: cell-based, human; details: one dose 10 μM
[30] = system: A498 (renal cancer); test: NCI 60-cell one-dose antiproliferative screen; assay type: cell-based, human; details: one dose 10 μM
[31] = system: NCI-H322M (NSC lung cancer); test: NCI 60-cell one-dose antiproliferative screen; assay type: cell-based, human; details: one dose 10 μM
[32] = system: NCI/ADR-RES (ovarian cancer); test: NCI 60-cell one-dose antiproliferative screen; assay type: cell-based, human; details: one dose 10 μM
[33] = system: HT29 (colon cancer); test: NCI 60-cell one-dose antiproliferative screen; assay type: cell-based, human; details: one dose 10 μM
[34] = system: HS 578T (breast cancer); test: NCI 60-cell one-dose antiproliferative screen; assay type: cell-based, human; details: one dose 10 μM
[35] = system: SF-539 (CNS cancer); test: NCI 60-cell one-dose antiproliferative screen; assay type: cell-based, human; details: one dose 10 μM
[36] = system: SNB-19 (CNS cancer); test: NCI 60-cell one-dose antiproliferative screen; assay type: cell-based, human; details: one dose 10 μM
[37] = system: SF-295 (CNS cancer); test: NCI 60-cell one-dose antiproliferative screen; assay type: cell-based, human; details: one dose 10 μM
[38] = system: ACHN (renal cancer); test: NCI 60-cell one-dose antiproliferative screen; assay type: cell-based, human; details: one dose 10 μM
[39] = system: MDA-MB-231/ATCC (breast cancer); test: NCI 60-cell one-dose antiproliferative screen; assay type: cell-based, human; details: one dose 10 μM
[40] = system: MALME-3M (melanoma); test: NCI 60-cell one-dose antiproliferative screen; assay type: cell-based, human; details: one dose 10 μM
[41] = system: A549/ATCC (NSC lung cancer); test: NCI 60-cell one-dose antiproliferative screen; assay type: cell-based, human; details: one dose 10 μM
[42] = system: EKVX (NSC lung cancer); test: NCI 60-cell one-dose antiproliferative screen; assay type: cell-based, human; details: one dose 10 μM
[43] = system: KM12 (colon cancer); test: NCI 60-cell one-dose antiproliferative screen; assay type: cell-based, human; details: one dose 10 μM
[44] = system: NCI-H460 (NSC lung cancer); test: NCI 60-cell one-dose antiproliferative screen; assay type: cell-based, human; details: one dose 10 μM
[45] = system: COLO-205 (colon cancer); test: NCI 60-cell one-dose antiproliferative screen; assay type: cell-based, human; details: one dose 10 μM
[46] = system: UACC-62 (melanoma); test: NCI 60-cell one-dose antiproliferative screen; assay type: cell-based, human; details: one dose 10 μM
[47] = system: M14 (melanoma); test: NCI 60-cell one-dose antiproliferative screen; assay type: cell-based, human; details: one dose 10 μM
[48] = system: OVCAR-3 (ovarian cancer); test: NCI 60-cell one-dose antiproliferative screen; assay type: cell-based, human; details: one dose 10 μM
[49] = system: HOP-62 (NSC lung cancer); test: NCI 60-cell one-dose antiproliferative screen; assay type: cell-based, human; details: one dose 10 μM
[50] = system: 786-0 (renal cancer); test: NCI 60-cell one-dose antiproliferative screen; assay type: cell-based, human; details: one dose 10 μM
[51] = system: OVCAR-5 (ovarian cancer); test: NCI 60-cell one-dose antiproliferative screen; assay type: cell-based, human; details: one dose 10 μM
[52] = system: MDA-MB-435 (melanoma); test: NCI 60-cell one-dose antiproliferative screen; assay type: cell-based, human; details: one dose 10 μM
[53] = system: MDA-MB-468 (breast cancer); test: NCI 60-cell one-dose antiproliferative screen; assay type: cell-based, human; details: one dose 10 μM
[54] = system: OVCAR-4 (ovarian cancer); test: NCI 60-cell one-dose antiproliferative screen; assay type: cell-based, human; details: one dose 10 μM
[55] = system: NCI-H23 (NSC lung cancer); test: NCI 60-cell one-dose antiproliferative screen; assay type: cell-based, human; details: one dose 10 μM
[56] = MTT cytotoxicity assay, MCF10a; assay type: cell-based; details: human, MCF10a normal mammary epithelial cells
[57] = system: caspase-9; test: Caspase-9; assay type: cell-based, human; details: MCF7 cells, versus untreated control cells

COc1ccc(-c2nnc3ccc(NNC(C)=O)nn23)cc1 [Compound 6b, N′-(3-(4-methoxyphenyl)-[1,2,4]triazolo[4,3-b]pyridazin-6-yl)acetohydrazide]
— (— GI% is below 15%): GI% [1] | GI% [2] | GI% [3] | GI% [5] | GI% [6] | GI% [7] | GI% [8] | GI% [9] | GI% [10] | GI% [11] | GI% [12] | GI% [13] | GI% [14] | GI% [15] | GI% [16] | GI% [17] | GI% [18] | GI% [19] | GI% [20] | GI% [21] | GI% [22] | GI% [23] | GI% [24] | GI% [25] | GI% [26] | GI% [27] | GI% [28] | GI% [29] | GI% [30] | GI% [31] | GI% [32] | GI% [33] | GI% [34] | GI% [35] | GI% [36] | GI% [37] | GI% [38] | GI% [39] | GI% [40] | GI% [41] | GI% [42] | GI% [43] | GI% [44] | GI% [45] | GI% [46] | GI% [47] | GI% [48] | GI% [49] | GI% [50] | GI% [51] | GI% [52] | GI% [53] | GI% [54] | GI% [55]
< 0%: inhibition at 10 µM [4]

CN[C@@H]1C[C@H]2O[C@@](C)([C@@H]1OC)n1c3ccccc3c3c4c(c5c6ccccc6n2c5c31)C(=O)NC4 [Staurosporine, reference compound]
18.3 ± 8.03 µM: IC50 at 72 h [56]
7.19 fold: increase of apoptotic caspase-9 level [57]
